Consider one substance from patent publication US20260250337A1, “HYBRID ANTIMICROBIAL PEPTIDES” (UNIVERSIDADE FEDERAL DO ABC, priority 2023, published 2026).

One may read the share remaining as what is left of the initial amount, in per cent.

Entries after “also recorded” stand apart in the source; their conditions may differ. No end group written: not given here.

One series relates to human erythrocytes. Kind of series: Hemolytic activity assay. Format: cell-based. Conditions: human erythrocytes, 1 h. As to the method:
Method. Assays against freshly collected human erythrocytes were performed following protocols described by Pedron et al. 62. Briefly, peptide aliquots at concentrations ranging from 0.1 to 100 μmol L−1 were incubated with a suspension of erythrocytes at room temperature for 1 h. The samples were then centrifuged, and the absorbance of the supernatant was measured at 405 nm. The MHC (maximal non-hemolytic concentration) was determined as the maximal concentration at which 100% of the erythrocytes were viable. The surfactant SDS and PBS buffer were used as positive88, 89 and negative controls, respectively. Sodium heparin was used as an anticoagulant when collecting human blood. Three biological repeats were performed.

For another series, the system named is S. marcescens ATCC 4112. As to the kind of experiment: Liquid growth inhibition assay, MIC. In kind it is cell-based, Serratia marcescens. Conditions: 37° C., 18 h. As for the experimental part: (§1) Initially, the antimicrobial activity was determined by liquid growth inhibition assays, as previously described by Pedron et al.^62. Briefly, Peptone Broth and Potato Dextrose Broth (Invitrogen) were used for antibacterial and antifungal assays, respectively. Two-fold serial dilutions of peptides (0.09-50 μmol L^−1) and microorganisms (Serratia marcescens ATCC 4112, Enterobacter cloacae β-12, Micrococcus luteus A270, Bacillus megaterium ATCC 10778, Bacillus subtilis ATCC 6633, Candida albicans MDM8, and Candida tropicalis IOC 4560) were incubated at 37° C. for 18 h (for bacteria) or 24 h (for fungi), and microbial growth was assessed by absorbance measurements at 595 nm. Experiments were performed in three biological repeats.

The subject of another series is M. luteus A270. Kind of series: Liquid growth inhibition assay, MIC. In kind it is cell-based, Micrococcus luteus. Conditions: 37° C., 18 h. As to the method: as §1
In a further series the test system is B. megaterium ATCC 10778. Kind of series: Liquid growth inhibition assay, MIC. In kind it is cell-based, Bacillus megaterium. Conditions: 37° C., 18 h. As for the experimental part: as §1
The test system of a further series is C. albicans MDM8. Kind of series: Liquid growth inhibition assay, MIC (antifungal). Conditions: 37° C., 24 h. Format: cell-based, Candida albicans. As to the method:
as §1

Series [1] in a line: Resistance to degradation in fetal bovine serum. In kind it is in vitro ADME. Conditions: bovine, fetal bovine serum, 25% in water, fetal bovine serum 25% in water, 37° C. As to the method:
The resistance to proteolytic degradation of the hybrid peptides was assessed by exposing them for 6 h to serum peptidases in a fetal bovine serum solution^68, 69 (FIG. 5a and Table S4). The peptide degradation kinetics were calculated by integrating the peak area of the peak in relation to the peptide at the beginning of the experiment (time=0) and comparing it to the integrated peak area relative to the peptides after exposure to the enzymes at time points: 0.5, 1, 2, 4, and 6 h (FIG. 5a and Table S4). […] However, AV was resistant to degradation against proteases, with almost 40% peptide content remaining after 4 h of exposure (FIG. 5a and Table S4). […] VP was almost entirely degraded after 30 min (22% of peptide remaining). […] D-amino acid substitutions have been used as alternatives to prevent the degradation of AMPs. For example, Qiu et. al. described a protonectin analog with a D-Lys residue in position 10 as an alternative to protonectin; this analog is not degraded and has higher antimicrobial activity against bacteria and fungi than the original peptide.
Methods. Stability assays were performed following the protocol described by Torres et al.^71. Briefly, a peptide solution was added to GIBCO fetal bovine serum diluted to 25% in water and kept at 37° C. The degradation kinetics were monitored by liquid chromatography and the percentage of peptide remaining was calculated by integrating the peptide peak area. The experiments were performed as three independent replicates, and aliquots were taken at 0, 0.5, 1, 2, 4, and 6 h.

The next series has as its system C. tropicalis IOC 4560. As to the kind of experiment: Liquid growth inhibition assay, MIC (antifungal). In kind it is cell-based, Candida tropicalis. Conditions: 37° C., 24 h. As for the experimental part: as §1
The subject of series [2] is Plasmodium gallinaceum sporozoites. As to the kind of experiment: Antiplasmodial activity, fluorescence microscopy. Format: cell-based. As for the experimental part: Method. The activity of the peptides against Plasmodium gallinaceum sporozoites was determined by fluorescence microscopy, as previously described by Silva et. al.^83. Briefly, 9,000 sporozoites were isolated from the glands of infected Aedes aegypti mosquitos and incubated with serially diluted peptides (ranging from 0.1 to 1.6 μmol L^−1) at 37° C. for 1 h. A PBS solution and the surfactant digitonin^84, 85 were used as negative and positive controls, respectively. Propidium iodide was used to stain dead cells. Assays were executed using fluorescence microscopy. Three biological repeats each with three different mosquito batches (n=9) were used.

The subject of the next series is E. cloacae β-12. Kind of series: Liquid growth inhibition assay, MIC. Format: cell-based, Enterobacter cloacae. Conditions: 37° C., 18 h. As to the method: as §1
A short description of series [3]: Circular dichroism, helical fraction (Lifson-Roig). Format: physicochemical. Conditions: peptide 50 μmol L^−1. As to the method:
Method. Circular dichroism (CD) assays were performed with a Spectropolarimeter Jasco Mod. J-815 (JascoCorp). CD spectra were obtained in Far-UV (195-260 nm), and analyzed in the following solutions: water, 2,2,2-trifluoroethanol (TFE) in water (3:2, v:v), phosphate buffer saline (PBS, 10 mmol L^−1, pH 7.4), sodium dodecyl sulfate (SDS 20 mmol L^−1) in water, palmitoyloleoylphosphatidylcholine (POPC; 10 mmol L^−1), palmitoyloleoylphosphatidylcholine:dioleylphosphatidylethanolamine (POPC:DOPE; 3:1, mol:mol, 10 mmol L^−1) and palmitoyloleoylphosphatidylcholine:palmitoyloleoylphosphatidylglycerol (POPC:POPG; 3:1, mol:mol, 10 mmol L^−1) at a peptide concentration of 50 μmol L^−1. These experiments were performed as described in detail by Pedron et al.^62.

In series [4] the test system is MCF-7 human breast cancer cells. Kind of series: Anticancer activity, MTT assay. Format: cell-based. Conditions: incubation time not stated. As for the experimental part:
The anticancer activity assays were performed using MCF-10A human breast epithelial cells and MCF-7 mammary cancer cells as previously described by Pedron et al. 86. Briefly, the day before treatment, the cells were incubated at 37° C. and 5% CO2 for 24 h. The cells were treated with peptides ranging from 12.5 to 100 μmol L^−1 (MCF10-A cells) and 0.8 to 100 μmol L^−1 (MCF-7 cells) for 4 h and 24 h at 37° C., and cell viability was measured using 3-(4,5-Dimethylthiazol-2-yl)-2,5-diphenyltetrazolium bromide (MTT) assays 87. Three independent replicates were performed in each case.
For orientation: Tetrazolium assays rely on reduction of a dye to a coloured formazan, in cell work by metabolically active cells.

Series [5] has as its system S. epidermidis ATCC 12228. Kind of series: Liquid growth inhibition assay, MIC. In kind it is cell-based. Conditions: 37° C., 18 h.
For series [6] the following is noted: at 100 μmol L^−1; cited from earlier work.

For the substance “SLLSLIRKLIT-NH2 [Decoralin, Ser-Leu-Leu-Ser-Len-Ile-Arg-Lys-Leu-Ile-Thr, reference compound]”, in the series on human erythrocytes, the “Hemolytic activity, concentration of peptide needed to kill 10% of red blood cells” value came out at 1.6 µmol/L. In the series with human erythrocytes (room temperature, concentration with approximately 0% of hemolytic activity), this substance displayed an MHC of 1.6 µmol/L. Further, the “MIC S. marcescens ATCC 4112” value in the series with S. marcescens ATCC 4112 was determined as 3.1 µmol/L. The “MIC M. luteus A270” value in the series with M. luteus A270 was found to be 0.8 µmol/L. Also, the “MIC B. megaterium ATCC 10778” value against B. megaterium ATCC 10778 stood at 1.6 µmol/L. Also, the “MIC C. albicans MDM8” value against C. albicans MDM8 came to 0.8 µmol/L. For the same substance, the share remaining at 0.5 h in series [1] (30 min, read-out: remaining peptide, 30 min) is around 70%. In addition, the fraction remaining at 1 h in series [1] (1 h, read-out: remaining peptide, 1 h) is below 30%. The fraction remaining at 2 h in [1] (2 h, read-out: remaining peptide, 2 h) was below 30%. Further, in the series with C. tropicalis IOC 4560, the “MIC C. tropicalis IOC 4560” value was 1.6 µmol/L. In addition, the “P. gallinaceum (% sporozoites at 0.8 μmol L^−1)” value in [2] (0.8 μmol L^−1, fluorescent (propidium iodide stained) sporozoites, 37° C., 1 h) worked out at 0%. The “antiplasmodial activity” value in series [2] (P. gallinaceum sporozoites, concentration range tested) is given as “no activity; also recorded: did not present antiplasmodial activity”. Further, in the series with E. cloacae β-12, the “MIC E. cloacae β-12” value was found to be 6.3 µmol/L. In series [3] (PBS 10 mmol L^−1, pH 7.4), the “Helical fraction (fH) PBS” value is listed as 0.06. In addition, the “Helical fraction (fH) POPC” value in series [3] (POPC 10 mmol L^−1) is reported as 0.23. Moreover, in [3] (POPC:DOPE 3:1, mol:mol, 10 mmol L^−1), the “Helical fraction (fH) POPC:DOPE” value is 0.19. Besides, in [3] (POPC:POPG 3:1, mol:mol, 10 mmol L^−1), the “Helical fraction (fH) POPC:POPG” value is recorded as 0.40. The “Helical fraction (fH) SDS” value in [3] (SDS 20 mmol L^−1 in water) is 0.22. The “Helical fraction (fH) TFE/Water” value in series [3] (TFE in water (3:2, v:v)) is 0.29. The “Helical fraction (fH) Water” value in [3] (water) came out at 0.05. In series [4], the “concentration with activity against MCF-7 human breast cancer cells” value came out at 50 µmol/L. Further, the “MIC S. epidermidis ATCC 12228” value in series [5] stood at 6.3 µmol/L. For the same substance, the “hemolytic activity of decoralin” value in [6] is “low hemolytic activity”.
